Results reported in ChEMBL document CHEMBL1201862, “PubChem BioAssay data set” (2004).
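Test compounds were applied to cells in 96-well plates for 48 hours at 5 doses. GI50 = concentration required for 50% inhibition of growth.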 Activity calls are given as the source filed them. Rule as the data show it: active = GI50 up to about 1.1 µM and inactive = higher.

Assays:
Assay in all cases: NCI anticancer screen, dose series, 48 h
[1] = system: SF-295
[2] = system: NCI-H460
[3] = system: SK-MEL-2
[4] = system: UO-31
[5] = system: EKVX
[6] = system: Hs-578T
[7] = system: LOX IMVI
[8] = system: COLO 205
[9] = system: HL-60
[10] = system: SNB-19
[11] = system: NCI/ADR-RES
[12] = system: TK-10
[13] = system: SN12C
[14] = system: HT-29
[15] = system: OVCAR-8
[16] = system: CCRF-CEM
[17] = system: MOLT-4
[18] = system: NCI-H522
[19] = system: CAKI-1
[20] = system: OVCAR-3

| SMILES | GI50 [1] | GI50 [2] | GI50 [3] | GI50 [4] | GI50 [5] | GI50 [6] | GI50 [7] | GI50 [8] | GI50 [9] | GI50 [10] | GI50 [11] | GI50 [12] | GI50 [13] | GI50 [14] | GI50 [15] | GI50 [16] | GI50 [17] | GI50 [18] | GI50 [19] | GI50 [20] |
| --- | --- | --- | --- | --- | --- | --- | --- | --- | --- | --- | --- | --- | --- | --- | --- | --- | --- | --- | --- | --- |
| CCOC(=O)C1C(=O)CC(C)(O)C(C(=O)OCC)C1c1ccc(OC)cc1 (stereo unspecified) | > 100 µM (inactive) | > 100 µM (inactive) | > 100 µM (inactive) | > 100 µM (inactive) | > 100 µM (inactive) | > 100 µM (inactive) | > 100 µM (inactive) | > 100 µM (inactive) | > 100 µM (inactive) | > 100 µM (inactive) | > 100 µM (inactive) | > 100 µM (inactive) | > 100 µM (inactive) | > 100 µM (inactive) | > 100 µM (inactive) | > 100 µM (inactive) | > 100 µM (inactive) | > 100 µM (inactive) | > 100 µM (inactive) | > 100 µM (inactive) |
| C[C@]12CC[C@@H]3c4cc(OCC(F)(F)F)c(O)cc4C(=O)C[C@H]3[C@@H]1CC[C@@H]2O | 3.6 µM (inactive) | 4.71 µM (inactive) | 11.4 µM (inactive) | 13.6 µM (inactive) | 14.7 µM (inactive) | 4.92 µM (inactive) | 5.79 µM (inactive) | 26.6 µM (inactive) | 1.84 µM (inactive) | 13.5 µM (inactive) | 6.35 µM (inactive) | 18.7 µM (inactive) | 13.1 µM (inactive) | 12.9 µM (inactive) | 23.1 µM (inactive) | 3.39 µM (inactive) | 3.5 µM (inactive) | 3.3 µM (inactive) | 6.93 µM (inactive) | 2.88 µM (inactive) |
| Cc1cc(NC2=CC(=O)C(=O)c3ccccc32)no1 | 9.1 µM (inactive) | 6.87 µM (inactive) | 4.75 µM (inactive) | 7.94 µM (inactive) | 16.1 µM (inactive) | 9.4 µM (inactive) | 1.84 µM (inactive) | 16.1 µM (inactive) | 6.22 µM (inactive) | 16.2 µM (inactive) | 3.87 µM (inactive) | 26.1 µM (inactive) | 2.88 µM (inactive) | 13 µM (inactive) | 6.81 µM (inactive) | 9.66 µM (inactive) | 8.57 µM (inactive) | 18.5 µM (inactive) | 5.71 µM (inactive) | 3.85 µM (inactive) |
| COc1ccccc1Cn1c2c(c3c(C(=O)NCCN(C)C)c(O)ccc31)C(=O)c1ccccc1C2=O | 1.87 µM (inactive) | 2.09 µM (inactive) | 1.69 µM (inactive) | 1.75 µM (inactive) | 1.82 µM (inactive) | 1.9 µM (inactive) | 1.89 µM (inactive) | 1.94 µM (inactive) | 1.01 µM (active) | 2.03 µM (inactive) | 2.02 µM (inactive) | 1.61 µM (inactive) | 1.94 µM (inactive) | 1.92 µM (inactive) | 2.14 µM (inactive) | 0.298 µM (active) | 1.06 µM (active) | 1.69 µM (inactive) | 2.04 µM (inactive) | 1.99 µM (inactive) |
| C(=N/c1ccccc1C1SCCCS1)/c1ccccc1 | > 100 µM (inactive) | > 100 µM (inactive) | > 100 µM (inactive) | > 100 µM (inactive) | > 100 µM (inactive) | > 100 µM (inactive) | > 100 µM (inactive) | > 100 µM (inactive) | 82.6 µM (inactive) | > 100 µM (inactive) | > 100 µM (inactive) | > 100 µM (inactive) | > 100 µM (inactive) | > 100 µM (inactive) | > 100 µM (inactive) | > 100 µM (inactive) | > 100 µM (inactive) | > 100 µM (inactive) | > 100 µM (inactive) | > 100 µM (inactive) |
| O=CN1CCN(C(=O)c2ccc(Cl)cc2)C1=S | 26.9 µM (inactive) | 21.6 µM (inactive) | 16.3 µM (inactive) | – | 15.6 µM (inactive) | 49.5 µM (inactive) | 11.7 µM (inactive) | 20.7 µM (inactive) | 23.3 µM (inactive) | 15.6 µM (inactive) | 36.5 µM (inactive) | 15 µM (inactive) | 14.7 µM (inactive) | 17.2 µM (inactive) | 15.6 µM (inactive) | 12.8 µM (inactive) | 19.2 µM (inactive) | 14.8 µM (inactive) | 14.1 µM (inactive) | 15.4 µM (inactive) |
| COc1cc2cc(C(=O)N3CC(CCl)c4ccccc43)[nH]c2c(OC)c1OC (stereo unspecified) | 70.3 µM (inactive) | 17.5 µM (inactive) | 62.5 µM (inactive) | 47.4 µM (inactive) | > 66.1 µM (inactive) | > 100 µM (inactive) | 44.8 µM (inactive) | 33.8 µM (inactive) | 16.3 µM (inactive) | > 100 µM (inactive) | 34.8 µM (inactive) | > 100 µM (inactive) | 5.6 µM (inactive) | 26.8 µM (inactive) | 81.8 µM (inactive) | > 36.6 µM (inactive) | 13.4 µM (inactive) | 17.2 µM (inactive) | 61.2 µM (inactive) | > 100 µM (inactive) |
| CCC(C)(C)/C(CC(O)(C(F)(F)F)C(F)(F)F)=N\O | > 100 µM (inactive) | > 100 µM (inactive) | > 100 µM (inactive) | > 100 µM (inactive) | > 100 µM (inactive) | > 100 µM (inactive) | > 100 µM (inactive) | > 100 µM (inactive) | > 100 µM (inactive) | > 100 µM (inactive) | > 100 µM (inactive) | > 100 µM (inactive) | > 100 µM (inactive) | > 100 µM (inactive) | – | > 100 µM (inactive) | > 100 µM (inactive) | > 100 µM (inactive) | > 100 µM (inactive) | > 100 µM (inactive) |
| Cc1ccc(C(=O)O)cc1S(=O)(=O)Nn1cnc2ccc(S(=O)(=O)Nc3ccccc3C(=O)O)cc2c1=O | 26.1 µM (inactive) | > 100 µM (inactive) | 61 µM (inactive) | 46.1 µM (inactive) | > 100 µM (inactive) | > 100 µM (inactive) | > 100 µM (inactive) | 31.6 µM (inactive) | > 100 µM (inactive) | > 100 µM (inactive) | > 100 µM (inactive) | > 100 µM (inactive) | > 100 µM (inactive) | > 100 µM (inactive) | > 100 µM (inactive) | > 100 µM (inactive) | > 100 µM (inactive) | > 100 µM (inactive) | > 100 µM (inactive) | > 100 µM (inactive) |
| CC(C)(C)C1(COC(=O)c2ccc(N)cc2)COC1 | 29.1 µM (inactive) | 48.4 µM (inactive) | > 100 µM (inactive) | 56 µM (inactive) | 39.4 µM (inactive) | > 100 µM (inactive) | > 100 µM (inactive) | > 100 µM (inactive) | 26.3 µM (inactive) | > 100 µM (inactive) | 58.3 µM (inactive) | > 100 µM (inactive) | 94.6 µM (inactive) | 50.1 µM (inactive) | 58.3 µM (inactive) | 46 µM (inactive) | 30.5 µM (inactive) | 47.6 µM (inactive) | > 100 µM (inactive) | 26.3 µM (inactive) |
| N/C(=N\O)NCCN1CCCCCCC1 | > 100 µM (inactive) | > 100 µM (inactive) | > 100 µM (inactive) | > 100 µM (inactive) | > 100 µM (inactive) | > 100 µM (inactive) | > 100 µM (inactive) | > 100 µM (inactive) | > 100 µM (inactive) | > 100 µM (inactive) | > 100 µM (inactive) | > 100 µM (inactive) | 37.2 µM (inactive) | > 100 µM (inactive) | 42 µM (inactive) | > 100 µM (inactive) | > 100 µM (inactive) | > 100 µM (inactive) | > 100 µM (inactive) | > 100 µM (inactive) |
| COC(=O)[C@]1(c2cc3ccccc3n2S(=O)(=O)c2ccccc2)CC2CN(C(=O)OCc3ccccc3)C1C1OC(C)(C)OC21 (stereo partly specified) | > 100 µM (inactive) | > 100 µM (inactive) | > 100 µM (inactive) | > 100 µM (inactive) | > 100 µM (inactive) | > 100 µM (inactive) | > 100 µM (inactive) | > 100 µM (inactive) | > 100 µM (inactive) | – | > 100 µM (inactive) | > 100 µM (inactive) | > 100 µM (inactive) | > 100 µM (inactive) | > 100 µM (inactive) | > 100 µM (inactive) | > 100 µM (inactive) | 1.31 µM (inactive) | > 100 µM (inactive) | > 100 µM (inactive) |
| CNc1cccc(-c2cc(O)c3cc4c(cc3n2)OCO4)c1 | 2.28 µM (inactive) | 0.436 µM (active) | 0.385 µM (active) | 0.509 µM (active) | – | 0.269 µM (active) | 0.372 µM (active) | 0.167 µM (active) | 0.198 µM (active) | 0.432 µM (active) | 0.199 µM (active) | 1.42 µM (inactive) | 0.553 µM (active) | 0.3 µM (active) | 0.409 µM (active) | 0.236 µM (active) | 0.581 µM (active) | 0.127 µM (active) | 0.237 µM (active) | 0.126 µM (active) |
| N#C/C(=C\c1ccc2[nH]ccc2c1)C(=O)c1ccc(O)c(O)c1 | 61.4 µM (inactive) | 37 µM (inactive) | > 78.9 µM (inactive) | 45 µM (inactive) | 57.9 µM (inactive) | 44.2 µM (inactive) | 63.7 µM (inactive) | > 67.8 µM (inactive) | 27.5 µM (inactive) | 50 µM (inactive) | 49.4 µM (inactive) | > 72.1 µM (inactive) | > 82.4 µM (inactive) | 69 µM (inactive) | > 100 µM (inactive) | 24.5 µM (inactive) | 44.7 µM (inactive) | 29.4 µM (inactive) | > 100 µM (inactive) | 9.42 µM (inactive) |
